Source: US20230266302A1, “SYNTHESIS AND USE OF N-BENZYL SULFONAMIDES” (THE UNIVERSITY OF TULSA, priority 2020, published 2023)

Legend:
Assay in all cases: ATP level assay (CellTiter-Glo), percent of control
Type in all cases: cell-based
MCF7 (breast cancer) = settings: two hour incubation; for activity at 100 µM: Homo sapiens, MCF7, 2 h, compound alone, control DMSO, read-out: POC (percent of control) MCF7
MDA-MB (breast cancer) = settings: two hour incubation; for activity at 100 µM: 2 h, compound alone, control DMSO, read-out: POC (percent of control) MDA-MB
SkBr3 (breast cancer) = settings: two hour incubation; for activity at 100 µM: Homo sapiens, SK-BR-3, 2 h, compound alone, control DMSO, read-out: POC (percent of control) SkBr3
HeLa (cervical cancer) = settings: two hour incubation; for activity at 100 µM: Homo sapiens, HeLa, 2 h, compound alone, control DMSO, read-out: POC (percent of control) HeLa
[1] = test system: BxPC3 (pancreatic cancer); settings: two hour incubation; for activity at 100 µM: Homo sapiens, BXPC-3, 2 h, compound alone, control DMSO, read-out: POC (percent of control) BxPC3
T47D (breast cancer) = settings: two hour incubation; for activity at 100 µM: Homo sapiens, T47D, 2 h, compound alone, control DMSO, read-out: POC (percent of control) T47D
HDF (normal cells) = settings: two hour incubation; for activity at 100 µM: 2 h, compound alone, control DMSO, read-out: POC (percent of control) HDF
H293 (kidney cancer) = settings: two hour incubation; for activity at 100 µM: 2 h, compound alone, control DMSO, read-out: POC (percent of control) H293
PC3 (prostate cancer) = settings: two hour incubation; for activity at 100 µM: 2 h, compound alone, control DMSO, read-out: POC (percent of control) PC3
NCI-H196 (lung cancer) = settings: two hour incubation; for activity at 100 µM: NCI-H196, 2 h, compound alone, control DMSO, read-out: POC (percent of control) NCI-H196
[2] = test system: MCF10A (non-cancerous breast); settings: two hour incubation; for activity at 100 µM: Homo sapiens, MCF-10A, 2 h, compound alone, control DMSO, read-out: POC (percent of control) MCF10A
[3] = compound 100 uM + 2DG (about 10-20 mM)
[4] = compound 100 uM + rotenone (approximately 1.25 μM)

SMILES	activity at 100 µM (MCF7 (breast cancer)) [%]	POC (percent of control) MCF7 (MCF7 (breast cancer); [3])	POC (percent of control) MCF7 (MCF7 (breast cancer); [4])	activity at 100 µM (MDA-MB (breast cancer)) [%]	POC (percent of control) MDA-MB (MDA-MB (breast cancer); [3])	POC (percent of control) MDA-MB (MDA-MB (breast cancer); [4])	activity at 100 µM (SkBr3 (breast cancer)) [%]	POC (percent of control) SkBr3 (SkBr3 (breast cancer); [3])	POC (percent of control) SkBr3 (SkBr3 (breast cancer); [4])	activity at 100 µM (HeLa (cervical cancer)) [%]	POC (percent of control) HeLa (HeLa (cervical cancer); [3])	POC (percent of control) HeLa (HeLa (cervical cancer); [4])	activity at 100 µM [1] [%]	POC (percent of control) BxPC3 [1, 4]	activity at 100 µM (T47D (breast cancer)) [%]	POC (percent of control) T47D (T47D (breast cancer); [3])	POC (percent of control) T47D (T47D (breast cancer); [4])	activity at 100 µM (HDF (normal cells)) [%]	POC (percent of control) HDF (HDF (normal cells); [3])	POC (percent of control) HDF (HDF (normal cells); [4])	also measured
COc1ccc(S(=O)(=O)NCc2c[nH]c3ccccc23)cc1 [Compound 23, N-(1H-indol-3-ylmethyl)-4-methoxybenzenesulfonamide]	96.3	93.6% of control	121.1% of control	98.6	85.9% of control	83% of control	85.9	75.5% of control	87.7% of control	84.1	86.9% of control	93.7% of control	95.9	78.5% of control	54	46.6% of control	71.7% of control	74.6	90.6% of control	119.9% of control	activity at 100 µM (H293 (kidney cancer)): 92.1%; POC (percent of control) H293 (H293 (kidney cancer); [3]): 47.4% of control; POC (percent of control) H293 (H293 (kidney cancer); [4]): 65.3% of control; activity at 100 µM (PC3 (prostate cancer)): 77.3%; POC (percent of control) PC3 (PC3 (prostate cancer); [3]): 92.9% of control; POC (percent of control) PC3 (PC3 (prostate cancer); [4]): 87.9% of control; activity at 100 µM (NCI-H196 (lung cancer)): 93%; POC (percent of control) NCI-H196 (NCI-H196 (lung cancer); [3]): 83.5% of control; POC (percent of control) NCI-H196 (NCI-H196 (lung cancer); [4]): 85.6% of control; activity at 100 µM [2]: 85%; POC (percent of control) MCF10A [2, 3]: 82.8% of control; POC (percent of control) MCF10A [2, 4]: 85.1% of control
O=S(=O)(NCc1c[nH]c2ccccc12)c1ccc(C(F)(F)F)cc1 [Compound 24, N-(1H-indol-3-ylmethyl)-4-(trifluoromethyl)benzenesulfonamide]	82.9	55.7% of control	66.5% of control	96.4	41.5% of control	49.7% of control	93.4	66.5% of control	67.2% of control	78.9	80.4% of control	96.1% of control	59	38.6% of control	70.6	49.7% of control	65.5% of control	57.2	65.6% of control	95.7% of control	POC (percent of control) BxPC3 [1, 3]: 43.1% of control; activity at 100 µM (H293 (kidney cancer)): 62.6%; POC (percent of control) H293 (H293 (kidney cancer); [3]): 42.1% of control; POC (percent of control) H293 (H293 (kidney cancer); [4]): 47.6% of control; activity at 100 µM (PC3 (prostate cancer)): 54.6%; POC (percent of control) PC3 (PC3 (prostate cancer); [3]): 52.5% of control; POC (percent of control) PC3 (PC3 (prostate cancer); [4]): 47.5% of control; activity at 100 µM (NCI-H196 (lung cancer)): 172%; POC (percent of control) NCI-H196 (NCI-H196 (lung cancer); [3]): 54.6% of control; POC (percent of control) NCI-H196 (NCI-H196 (lung cancer); [4]): 73.3% of control; activity at 100 µM [2]: 85.1%; POC (percent of control) MCF10A [2, 3]: 56.8% of control; POC (percent of control) MCF10A [2, 4]: 59.1% of control
O=S(=O)(NCc1c[nH]c2ccccc12)c1ccccc1 [Compound 3, N-[(1H-indol-3-yl)methyl]benzenesulfonamide]	105	74.5% of control	97.3% of control	92.4	81.8% of control	102.7% of control	72.8	79.4% of control	97.1% of control	99.2	67.6% of control	85.5% of control	96.8	84.5% of control	34.9	37.1% of control	58.7% of control	84.5	72.7% of control	91.9% of control	activity at 100 µM (H293 (kidney cancer)): 74.3%; POC (percent of control) H293 (H293 (kidney cancer); [3]): 42.8% of control; POC (percent of control) H293 (H293 (kidney cancer); [4]): 69.3% of control; activity at 100 µM (PC3 (prostate cancer)): 85%; POC (percent of control) PC3 (PC3 (prostate cancer); [3]): 59.4% of control; POC (percent of control) PC3 (PC3 (prostate cancer); [4]): 65.1% of control; activity at 100 µM (NCI-H196 (lung cancer)): 89.6%; POC (percent of control) NCI-H196 (NCI-H196 (lung cancer); [3]): 55% of control; POC (percent of control) NCI-H196 (NCI-H196 (lung cancer); [4]): 89.2% of control; activity at 100 µM [2]: 62.5%; POC (percent of control) MCF10A [2, 3]: 72.7% of control; POC (percent of control) MCF10A [2, 4]: 110.5% of control
COc1ncccc1CNS(=O)(=O)c1ccc(C)cc1 [Compound 12, N-[(2-methoxypyridin-3-yl)methyl]-4-methylbenzenesulfonamide]	97.3	90.8% of control	92.1% of control	87.2	83.9% of control	105.7% of control	91.6	73.5% of control	85.1% of control	98	78.5% of control	87.6% of control	79.8	61% of control	59.8	58.1% of control	95.2% of control	77.8	90.9% of control	70.4% of control	POC (percent of control) BxPC3 [1, 3]: 57% of control; activity at 100 µM (H293 (kidney cancer)): 94.4%; POC (percent of control) H293 (H293 (kidney cancer); [3]): 85% of control; POC (percent of control) H293 (H293 (kidney cancer); [4]): 74.9% of control; activity at 100 µM (PC3 (prostate cancer)): 82.1%; POC (percent of control) PC3 (PC3 (prostate cancer); [3]): 89.9% of control; POC (percent of control) PC3 (PC3 (prostate cancer); [4]): 80.3% of control; activity at 100 µM (NCI-H196 (lung cancer)): 83.5%; POC (percent of control) NCI-H196 (NCI-H196 (lung cancer); [3]): 117% of control; POC (percent of control) NCI-H196 (NCI-H196 (lung cancer); [4]): 81.8% of control; activity at 100 µM [2]: 98.6%; POC (percent of control) MCF10A [2, 3]: 88.1% of control; POC (percent of control) MCF10A [2, 4]: 86.1% of control
Cc1ccc(S(=O)(=O)NCc2nn(C)c3ccccc23)cc1 [Compound 8, 4-methyl-N-[(1-methyl-1H-indazol-3-yl)methyl]benzenesulfonamide]	140	86.2% of control	116.7% of control	93.9	91.7% of control	86.2% of control	88.8	97.1% of control	103.7% of control	106	80.8% of control	99.1% of control	106	93.5% of control	64.1	94.6% of control	101.2% of control	99	91.3% of control	88.3% of control	POC (percent of control) BxPC3 [1, 3]: 87.1% of control; activity at 100 µM (H293 (kidney cancer)): 112%; POC (percent of control) H293 (H293 (kidney cancer); [3]): 83.5% of control; POC (percent of control) H293 (H293 (kidney cancer); [4]): 87.1% of control; activity at 100 µM (PC3 (prostate cancer)): 109%; POC (percent of control) PC3 (PC3 (prostate cancer); [3]): 87.9% of control; POC (percent of control) PC3 (PC3 (prostate cancer); [4]): 108.3% of control; activity at 100 µM (NCI-H196 (lung cancer)): 91.1%; POC (percent of control) NCI-H196 (NCI-H196 (lung cancer); [3]): 99.2% of control; POC (percent of control) NCI-H196 (NCI-H196 (lung cancer); [4]): 95.1% of control; activity at 100 µM [2]: 94.6%; POC (percent of control) MCF10A [2, 3]: 77.9% of control; POC (percent of control) MCF10A [2, 4]: 94.4% of control
